Laboratory results reported in US4374149A, “α-{[(Arylalkyl)amino]alkyl}-4-hydroxy-3-(lower-alkylsul finyl)benzenemethanols” (Sterling Drug Inc., priority 1978, dated 1983).
Structures can show the parent of a compound that is named as a salt.

Assays:
[1] = tested on: systolic blood pressure; assay: Antihypertensive activity, reduction in systolic blood pressure, single oral medication, unanesthetized spontaneous hypertensive rat; type: in vivo; details: for Antihypertensive activity SH Rat AHD40 (single oral dose required to induce a 40 mm. average reduction in systolic blood pressure) / Actual reduction in blood pressure observed at the indicated dose: P.O.; for Antihypertensive activity SH Rat AHD40 (single oral dose required to induce a 40 mm. average reduction in systolic blood pressure): unanesthetized SH rat
Description: Antihypertensive activity was determined on the basis of the observed reduction in systolic blood pressure measured according to the method of H. Kersten et al., J. Lab. and Clin. Med. 32, 1090 (1947) following a single oral medication in the unanesthetized spontaneous hypertensive rat described by Okamato et al., Japan Circulation J. 27, 282 (1963).
^a AHD40 = single oral dose required to induce a 40 mm. average

[2] = tested on: blood pressure; assay: Antihypertensive activity, sustained lowering of blood pressure, repeated oral medication, unanesthetized trained renal hypertensive dog; type: in vivo; details: tid.; for Actual percentage reduction in blood pressure observed at the indicated dose: 0.125 mg./kg.
Description: Antihypertensive activity was also judged on the basis of sustained reduction of blood pressure observed in the unanesthetized trained renal hypertensive dog following repeated oral medication according to the procedure described by Lape et al., Arch.
^b MED10 = minimum repeated oral daily dose required to effect a

[3] = tested on: hind limb vasculature; assay: Vasodilator activity, perfusion pressure in hind limb vasculature of anesthetized dog; type: in vivo; details: intraarterial, anesthetized dog hind limb; for ED50: Canis lupus familiaris, read-out: Vasodilator activity Dog-Leg Perfusion AED50 (approximate intraarterial dose for 50 reduction in perfusion pressure); for Vasodilator activity Dog-Leg Perfusion AED50 (approximate intraarterial dose for 50 reduction in perfusion pressure): acetate salt
Text: (§1) Vasodilator activity was judged on the basis of observed reduction in perfusion pressure in the hind limb vasculature of the anesthetized dog determined according to the procedure described by Jandhyala et al., European J. Pharm. 17, 357 (1972), and also on the basis of percent reduction in perfusion pressure as measured in the isolated rabbit ear artery according to the method described by De LaLande et al., Aust. J. Exp. Biol. Med. Sci. 43, 639 (1965).
^c AED50 = approximate intraarterial dose required to cause a 50

[4] = tested on: isolated rabbit ear artery; assay: Vasodilator activity, perfusion pressure in isolated rabbit ear artery
Text: as §1
^d Vasodilation is expressed as the percentage reduction in perfusion

[5] = tested on: β-adrenergic; assay: β-adrenergic blocking activity, inhibition of isoproterenol-elicited heart rate increase in pentobarbitalized dog; type: in vivo; details: i.v.; for Dog β-blockade AED50 (approximate intravenous dose for 50% inhibition of isoproterenol-elicited heart rate increase): pentobarbitalized dog
Description: The β-adrenergic blocking activity was determined in the pentobarbitalized dog as judged by the ability of the test compound to inhibit the elevation in heart rate elicited by a 0.5 mcg./kg. i.v. injection of isoproterenol.
^e AED50 = approximate intravenous dose required to cause 50%

[6] = tested on: Ouabain-induced arrhythmia; assay: Conversion of ouabain-induced arrhythmia in dogs; type: in vivo, mongrel dogs; set-up: key: active (A); inactive (I)
Description: (§2) The test procedures were carried out as follows.
Na-pentobarbital supplements were given i.v. as needed.
Both parameters were printed out on a Grass polygraph.

[7] = tested on: Ba++-induced arrhythmia; assay: Conversion of Ba++-induced arrhythmia in rabbits; type: in vivo; set-up: key: active (A); inactive (I)
Description: as §2
Adult rabbits or either sex weighing between 1.7 and 2.3 kg. were anesthetized with 30 to 35 mg./kg. Na-pentobarbital i.v. via a marginal ear vein. Monoplar ECG pin electrodes were inserted for a lead II display on a Model 5 Grass Polygraph using standard electrocardiographic procedures. A 23 ga. hypodermic needle, attached via a polyethylene catheter to a 10 cc. syringe, was inserted into the same vein as was used for anesthesia. A BaCl2.2H2 O solution in saline was then infused at a constant volume of 0.2 cc/min. from a Harvard Apparatus Model 600 infusion pump. This infusion was not stopped until termination of the experiment. In some studies barium chloride in distilled water was used without detectable differences. The standard rate of BaCl2.2H2 O infusion was established at 0.3 mg./kg./min. (1.2×10^-6 M/kg./min.), and the concentration was adjusted appropriately in each case to accommodate the weight of the rabbit.
When the desired arrhythmia was established, the test compound was introduced as a water or saline solution into the marginal ear vein of the unused ear. The volume used was between 0.5 and 2.0 cc./kg. and was injected as a bolus over approximately 30 seconds. Deviations from standard vehicle, rate of injection and total volume administered were at the discretion of the operator. The standard initial dose of an unknown compound on the first rabbit was 5×10^-5 M/kg. In general, two to three rabbits were used to determine anti-arrhythmic activity and the dose range of activity; multiple doses were administered. Once activity and dose was indicated, two additional rabbits were employed to confirm anti-arrhythmic activity against a multifocal tachycardia.

[8] = Acute intravenous and oral toxicity in mice; type: in vivo
Description: Acute intravenous and oral toxicity in mice was determined for the compound of Example 2G as follows: The compound was dissolved in distilled water and administered as the base at a volume of 10 ml./kg. for the i.v. ALD50 or 10-40 ml./kg. for the p.o. ALD50. The compound was administered in graded doses to groups of three mice each (Swiss-Webster strain males weighing 20±2 g.). Mortality occurred within 1 minute after i.v. administration and within 10 minutes after oral administration. […] The i.v. ALD50 was 75 mg./kg. and the p.o. ALD50 was 1500 mg./kg.

[9] = 5 × 10^-5 M, 50 µM, acetate salt

In the case of CC(=O)O.CC(CCc1ccccc1)NCC(O)c1ccc(O)c([S+](C)[O-])c1 (stereo not drawn) [Example 19C, 4-hydroxy-α-{[(1-methyl-3-phenylpropyl)amino]methyl}-3-(methylsulfinyl)benzenemethanol acetate salt], the “Antihypertensive activity SH Rat AHD40 (single oral dose required to induce a 40 mm. average reduction in systolic blood pressure)” value [1] is reported as 20.0 mg/kg, the “Renal Hypertensive Dog MED10 (minimum repeated oral daily dose for sustained lowering of blood pressure of 10% or greater)” value [2] is reported as greater than 0.125 mg/kg and the “Actual percentage reduction in blood pressure observed at the indicated dose” value (“Actual percentage reduction” for short) [2] is reported as 0%. The ED50 [3] was 0.5 mg/kg, the “Rabbit Ear Artery vasodilation (percentage reduction in perfusion pressure from control level)” value ([4]; 5 × 10^-5 M, 50 µM) was 50% and the “Actual percentage inhibition of heart rate increase above control level observed at the indicated dose” value ([5]; 0.025 mg./kg.) was 67%. The “Dog β-blockade AED50 (approximate intravenous dose for 50% inhibition of isoproterenol-elicited heart rate increase)” value [5] was less than 0.025 mg/kg, the “Conversion of Ouabain-induced Arrhythmia” value ([6]; 5 × 10^-5 M/kg.) was “A” and the “Conversion of Ba++-induced Arrhythmia” value ([7]; 2.5 × 10^-6 M/kg.) was “A”.
With COc1ccc(CCCNCC(O)c2ccc(O)c([S+](C)[O-])c2)cc1 (stereo not drawn) [Example 20C, 4-hydroxy-α-<{[3-(4-methoxyphenyl)propyl]amino}methyl>-3-(methylsulfinyl)benzenemethanol acetate salt] the “Antihypertensive activity SH Rat AHD40 (single oral dose required to induce a 40 mm. average reduction in systolic blood pressure)” value [1] was 7.0 mg/kg, the “Renal Hypertensive Dog MED10 (minimum repeated oral daily dose for sustained lowering of blood pressure of 10% or greater)” value [2] was greater than 0.125 mg/kg and the “Actual percentage reduction” value [2] was 0%. The ED50 [3] was 0.5 mg/kg, the “Rabbit Ear Artery vasodilation (in words)” value ([4]; concentration not given) was “constrictor” and the “Actual percentage inhibition of heart rate increase above control level observed at the indicated dose” value ([5]; 0.1 mg./kg.) was 67%. For the same molecule, the “Dog β-blockade AED50 (approximate intravenous dose for 50% inhibition of isoproterenol-elicited heart rate increase)” value [5] was less than 0.1 mg/kg.
With CC(CCc1ccc(O)cc1)NCCc1ccc(O)c([S+](C)[O-])c1 (single isomer, unassigned) [Example 30E, 4-<2-{[3-(4-hydroxy-phenyl)-1-mehylpropyl]amino}ethyl>-2-(methylsulfinyl)phenol hydrochloride] the “Actual reduction in blood pressure observed at the indicated dose” value (from here on “Actual reduction”) ([1]; 50 mg./kg.) was -3 mm. Hg, the “Antihypertensive activity SH Rat AHD40 (single oral dose required to induce a 40 mm. average reduction in systolic blood pressure)” value [1] was greater than 50 mg/kg and the “Dog β-blockade AED50 (approximate intravenous dose for 50% inhibition of isoproterenol-elicited heart rate increase)” value [5] was “ca. 0.50 mg./kg”. The “Conversion of Ouabain-induced Arrhythmia” value ([6]; 1 × 10^-5 M/kg.) was “A” and the “Conversion of Ba++-induced Arrhythmia” value ([7]; 2 × 10^-5 M/kg.) was “A”.
With COc1ccc(CCC(C)(C)NCC(O)c2ccc(O)c([S+](C)[O-])c2)cc1 (stereo not drawn) [Example 18D, α-<{[1,1-dimethyl-3-(4-methoxyphenyl)propyl]amino}methyl>-4-hydroxy-3-(methylsulfinyl)benzenemethanol acetate salt] the “Actual reduction” value ([1]; 20 mg./kg.) was -26 mm. Hg, the “Antihypertensive activity SH Rat AHD40 (single oral dose required to induce a 40 mm. average reduction in systolic blood pressure)” value [1] was greater than 20.0 mg/kg and the “Renal Hypertensive Dog MED10 (minimum repeated oral daily dose for sustained lowering of blood pressure of 10% or greater)” value [2] was greater than 0.125 mg/kg. For the same molecule, the “Actual percentage reduction” value [2] was 0%, the ED50 [3] was 0.5 mg/kg and the “Rabbit Ear Artery vasodilation (percentage reduction in perfusion pressure from control level)” value ([4]; 1 × 10^-4 M, 100 µM) was 42%. The “Actual percentage inhibition of heart rate increase above control level observed at the indicated dose” value ([5]; 1.0 mg./kg.) was 100%, the “Dog β-blockade AED50 (approximate intravenous dose for 50% inhibition of isoproterenol-elicited heart rate increase)” value [5] was less than 1.0 mg/kg and the “Conversion of Ba++-induced Arrhythmia” value ([7]; 5 × 10^-6 M/kg.) was “A”.
In the case of COc1ccc(CCC(C)NCC(O)c2ccc(O)c([S+](C)[O-])c2)cc1 (stereo not drawn) [Example 2G, 4-hydroxy-α-<{[3-(4-methoxyphenyl)-1-methylpropyl]amino}methyl>-3-(methylsulfinyl)benzenemethanol acetate salt], the “Antihypertensive activity SH Rat AHD40 (single oral dose required to induce a 40 mm. average reduction in systolic blood pressure)” value ([1]; acetate salt) is reported as 2.0 mg/kg, the “Antihypertensive activity (in words)” value ([1]; standard pharmacological tests on representative examples) is reported as “high antihypertensive activity” and the “Renal Hypertensive Dog MED10 (minimum repeated oral daily dose for sustained lowering of blood pressure of 10% or greater)” value [2] is reported as 0.0316 mg/kg. For the same molecule, the “Vasodilator activity Dog-Leg Perfusion AED50 (approximate intraarterial dose for 50 reduction in perfusion pressure)” value [3] was 0.5 mg/kg, the “Rabbit Ear Artery vasodilation (percentage reduction in perfusion pressure from control level)” value [4, 9] was 50% and the “Dog β-blockade AED50 (approximate intravenous dose for 50% inhibition of isoproterenol-elicited heart rate increase)” value ([5]; acetate salt) was 0.025 mg/kg. The “Time of mortality after i.v. administration” value ([8]; i.v.) was no more than 1 min, the “Symptoms of acute intoxication for the fatalities” value ([8]; mouse, in vivo) was “atoxia, loss of righting reflux, clonic convulsions and dyspnea followed by respiratory arrest” and the “Untoward symptoms in survivors” value ([8]; mouse, in vivo) was “no untoward symptoms observed for up to 7 days for the survivors”. The LD50 ([8]; mouse, in vivo, iv) was 75 mg/kg, the LD50 ([8]; mouse, in vivo, po) was 1500 mg/kg and the “Time of mortality after oral administration” value ([8]; oral) was no more than 10 min.
With CC(=O)O.C[S+]([O-])c1cc(C(O)CNC(C)(C)CCc2ccccc2)ccc1O (stereo not drawn) [Example 17C, α-{[(1,1-dimethyl-3-phenylpropyl)amino]methyl}-4-hydroxy-3-(methylsulfinyl)benzenemethanol acetate salt] the “Actual reduction” value ([1]; 20 mg./kg.) was -37 mm. Hg, the “Antihypertensive activity SH Rat AHD40 (single oral dose required to induce a 40 mm. average reduction in systolic blood pressure)” value [1] was greater than 20.0 mg/kg and the ED50 [3] was 0.5 mg/kg. For the same molecule, the “Rabbit Ear Artery vasodilation (percentage reduction in perfusion pressure from control level)” value ([4]; 5 × 10^-5 M, 50 µM) was 50%, the “Dog β-blockade AED50 (approximate intravenous dose for 50% inhibition of isoproterenol-elicited heart rate increase)” value [5] was 0.05 mg/kg and the “Conversion of Ouabain-induced Arrhythmia” value ([6]; 5 × 10^-6 M/kg.) was “A”. For the same molecule, the “Conversion of Ba++-induced Arrhythmia” value ([7]; 2.5 × 10^-6 M/kg.) was “A”.
With COc1ccc(CCC(C)NCC(O)c2ccc(O)c([S+](C)[O-])c2)cc1 (stereo not drawn) [Example 2H, 4-hydroxy-α-<{[3-(4-methoxyphenyl)-1-methylpropyl]amino}methyl>-3-(methylsulfinyl)benzenemethanol acetate salt] the “Antihypertensive activity SH Rat AHD40 (single oral dose required to induce a 40 mm. average reduction in systolic blood pressure)” value ([1]; acetate salt) was 9.0 mg/kg, the “Vasodilator activity Dog-Leg Perfusion AED50 (approximate intraarterial dose for 50 reduction in perfusion pressure)” value [3] was 0.5 mg/kg and the “Rabbit Ear Artery vasodilation (percentage reduction in perfusion pressure from control level)” value [4, 9] was 20%. For the same molecule, the “Dog β-blockade AED50 (approximate intravenous dose for 50% inhibition of isoproterenol-elicited heart rate increase)” value ([5]; acetate salt) was 0.025 mg/kg.
For COc1ccc(CCC(C)(C)NCCc2ccc(O)c([S+](C)[O-])c2)cc1 (centres unmarked) [Example 34C, 4-<2-{[3-(4-methoxyphenyl)-1,1-dimethylpropyl]amino}ethyl>-2-(methylsulfinyl)phenol hydrochloride], the “Actual reduction” value ([1]; 50 mg./kg.) was -8 mm. Hg, the “Antihypertensive activity SH Rat AHD40 (single oral dose required to induce a 40 mm. average reduction in systolic blood pressure)” value [1] was greater than 50 mg/kg and the “Actual percentage inhibition of heart rate increase above control level observed at the indicated dose” value ([5]; 1.0 mg./kg.) was 40%. For the same molecule, the “Dog β-blockade AED50 (approximate intravenous dose for 50% inhibition of isoproterenol-elicited heart rate increase)” value [5] was greater than 1.0 mg/kg, the “Conversion of Ouabain-induced Arrhythmia” value ([6]; 2 × 10^-5 M/kg.) was “A” and the “Conversion of Ba++-induced Arrhythmia” value ([7]; 2.5 × 10^-6 M/kg.) was “A”.
